This is an account of results in patent publication US9475817B2 (BRISTOL-MYERS SQUIBB COMPANY, priority 2012, dated 2016).

One assay has as its target CK1ε (Homo sapiens (Human), UniProt P49674). Put plainly: CK1ε kinase assay (Caliper LabChip, fluoresceinated peptide substrate). Conditions: 200 pM CK1ε, 50 μM ATP, 1.5 μM peptide substrate, 22 hours room temperature. It is filed as biochemical. Here is the method: (§1) CK1ε and CK1δ Kinase Assays
(§2) The kinase assay was performed in V-bottom 384-well plates. […] The reaction was incubated at room temperature for 22 hours and terminated by adding 45 μl of 35 mM EDTA to each sample. […] Compounds were dissolved at 10 mM in dimethylsulfoxide (DMSO) and evaluated at eleven concentrations. IC50 values were derived by non-linear regression analysis.

A further assay addresses CK1δ (Homo sapiens (Human), UniProt P48730). Put plainly: CK1δ kinase assay (Caliper LabChip, fluoresceinated peptide substrate). It is filed as biochemical. Particulars: 200 pM CK1δ, 50 μM ATP, 1.5 μM peptide substrate, 22 hours room temperature. Here is the method: as §1, §2

pIC50: −log10 of the molar value.

Sequence of CK1ε (P49674 whole entry): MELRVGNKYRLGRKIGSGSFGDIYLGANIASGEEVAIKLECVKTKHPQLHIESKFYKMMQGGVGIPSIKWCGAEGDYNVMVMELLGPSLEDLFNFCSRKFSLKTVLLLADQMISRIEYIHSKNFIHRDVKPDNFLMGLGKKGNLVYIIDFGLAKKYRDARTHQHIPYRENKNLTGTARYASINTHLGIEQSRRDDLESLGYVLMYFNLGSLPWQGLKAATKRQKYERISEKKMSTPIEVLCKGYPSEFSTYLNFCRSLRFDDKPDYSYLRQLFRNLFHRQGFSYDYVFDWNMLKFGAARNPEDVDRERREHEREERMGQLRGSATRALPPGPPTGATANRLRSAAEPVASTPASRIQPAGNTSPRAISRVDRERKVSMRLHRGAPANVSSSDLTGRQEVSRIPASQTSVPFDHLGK
Sequence of CK1δ (P48730 whole entry): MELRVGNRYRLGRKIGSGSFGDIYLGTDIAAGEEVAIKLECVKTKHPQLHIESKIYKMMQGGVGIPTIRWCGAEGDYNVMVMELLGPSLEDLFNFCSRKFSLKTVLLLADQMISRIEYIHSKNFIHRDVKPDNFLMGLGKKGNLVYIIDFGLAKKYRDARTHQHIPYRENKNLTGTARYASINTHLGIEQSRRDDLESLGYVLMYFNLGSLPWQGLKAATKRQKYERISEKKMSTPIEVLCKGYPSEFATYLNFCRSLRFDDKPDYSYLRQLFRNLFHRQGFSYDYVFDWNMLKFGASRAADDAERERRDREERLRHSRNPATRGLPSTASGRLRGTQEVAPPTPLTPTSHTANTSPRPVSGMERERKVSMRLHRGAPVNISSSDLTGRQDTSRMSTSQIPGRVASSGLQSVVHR

As usually defined, the pIC50 is −log10 of the IC50, conventionally taken in molar units. A lower pIC50 goes with a high IC50. Take `Cc1nocc1C(=O)Nc1cn2nc(-c3cn(C)nc3-c3ccc(F)cc3)ccc2n1` [Compound 12, N-(6-(3-(4-fluorophenyl)-1-methyl-1H-pyrazol-4-yl)imidazo[1,2-b]pyridazin-2-yl)-3-methylisoxazole-4-carboxamide]: the pIC50 is 7.54 against CK1ε and 8.14 against CK1δ.
For the compound `Cn1nc(-c2ccc(F)cc2)c(-c2ccc3nc(NC(=O)c4ccnc(N5CCOCC5)c4)cn3n2)c1N1CCN(CCCF)CC1` [Compound 139, N-(6-(3-(4-Fluorophenyl)-5-(4-(3-fluoropropyl)piperazin-1-yl)-1-methyl-1H-pyrazol-4-yl)imidazo[1,2-b]pyridazin-2-yl)-2-morpholinoisonicotinamide], the results for the pIC50 at CK1ε and at CK1δ were 8.03 and 8.85, respectively.
For `Cn1nc(-c2ccc(F)cc2)c(-c2ccc3nc(NC(=O)c4ccncc4)cn3n2)c1N1CCNCC1` [Compound 129, N-(6-(3-(4-Fluorophenyl)-1-methyl-5-(piperazin-1-yl)-1H-pyrazol-4-yl)imidazo[1,2-b]pyridazin-2-yl)isonicotinamide], the pIC50 at CK1ε was 8.48; against CK1δ it was 9.05.
As to `Cn1nc(-c2ccc(F)cc2)c(-c2ccc3nc(NC(=O)c4ccncc4)cn3n2)c1C1CCN(C2CCOCC2)CC1` [Compound 167, N-(6-(3-(4-fluorophenyl)-1-methyl-5-(1-(tetrahydro-2H-pyran-4-yl)piperidin-4-yl)-1H-pyrazol-4-yl)imidazo[1,2-b]pyridazin-2-yl)isonicotinamide], the results for the pIC50 on CK1ε and on CK1δ were 8.11 and 8.62, respectively.
`Cn1cc(-c2ccc3nc(NC(=O)c4ncc(-c5ccccn5)s4)cn3n2)c(-c2ccc(F)cc2)n1` [Compound 82, N-(6-(3-(4-fluorophenyl)-1-methyl-1H-pyrazol-4-yl)imidazo[1,2-b]pyridazin-2-yl)-5-(pyridin-2-yl)thiazole-2-carboxamide]: the pIC50 on CK1ε is 7.15; against CK1δ, 8.48.
Turning to `COc1ccncc1C(=O)Nc1cn2nc(-c3cn(C)nc3-c3ccc(F)cc3)ccc2n1` [Compound 64, N-(6-(3-(4-fluorophenyl)-1-methyl-1H-pyrazol-4-yl)imidazo[1,2-b]pyridazin-2-yl)-4-methoxynicotinamide], the pIC50 against CK1ε is 7.41; on CK1δ, 8.15.
As to `O=C(Nc1cn2nc(-c3cn(C4CC4)nc3-c3ccc(F)cc3)ccc2n1)c1ccncc1` [Compound 102, N-(6-(1-Cyclopropyl-3-(4-fluorophenyl)-1H-pyrazol-4-yl)imidazo[1,2-b]pyridazin-2-yl)isonicotinamide], the pIC50 on CK1ε was 8.00; against CK1δ, 8.52.
As for `Cn1nc(-c2ccc(F)cc2)c(-c2ccc3nc(NC(=O)c4ccnc(N5CCOCC5)c4)cn3n2)c1C1CCN(CCC(F)(F)F)CC1` [Compound 161, N-(6-(3-(4-Fluorophenyl)-1-methyl-5-(1-(3,3,3-trifluoropropyl)piperidin-4-yl)-1H-pyrazol-4-yl)imidazo[1,2-b]pyridazin-2-yl)-2-morpholinoisonicotinamide], the results for the pIC50 against CK1ε and against CK1δ were 7.64 and 8.77, respectively.
The like results for `Cn1cc(-c2ccc3nc(NC(=O)c4ccncn4)cn3n2)c(-c2ccc(F)cc2)n1` [Compound 38, N-(6-(3-(4-fluorophenyl)-1-methyl-1H-pyrazol-4-yl)imidazo[1,2-b]pyridazin-2-yl)pyrimidine-4-carboxamide] were, in that order, 7.36 and 7.97.
Consider `Cn1cc(-c2ccc3nc(NC(=O)c4cncc(O)c4)cn3n2)c(-c2ccc(F)cc2)n1` [Compound 70, N-(6-(3-(4-fluorophenyl)-1-methyl-1H-pyrazol-4-yl)imidazo[1,2-b]pyridazin-2-yl)-5-hydroxynicotinamide], for which the pIC50 against CK1ε is 8.33; on CK1δ, 8.70.
In the case of `Cc1nc(-c2cccnc2)sc1C(=O)Nc1cn2nc(-c3c(-c4ccc(F)cc4)nn(C)c3C3CCN(Cc4ccon4)CC3)ccc2n1` [Compound 176, N-(6-(3-(4-fluorophenyl)-5-(1-(isoxazol-3-ylmethyl)piperidin-4-yl)-1-methyl-1H-pyrazol-4-yl)imidazo[1,2-b]pyridazin-2-yl)-4-methyl-2-(pyridin-3-yl)thiazole-5-carboxamide], the pIC50 at CK1ε was 9.40; against CK1δ, 9.00.
As to `Cn1cc(-c2ccc3nc(NC(=O)c4cc(O)ncn4)cn3n2)c(-c2ccc(F)cc2)n1` [Compound 100, N-(6-(3-(4-fluorophenyl)-1-methyl-1H-pyrazol-4-yl)imidazo[1,2-b]pyridazin-2-yl)-6-hydroxypyrimidine-4-carboxamide], the figures for the pIC50 against CK1ε and against CK1δ were 7.54 and 8.03, respectively.
The like results for `Cc1ncccc1C(=O)Nc1cn2nc(-c3cn(C)nc3-c3ccc(F)cc3)ccc2n1` [Compound 78, N-(6-(3-(4-fluorophenyl)-1-methyl-1H-pyrazol-4-yl)imidazo[1,2-b]pyridazin-2-yl)-2-methylnicotinamide] were, in that order, 7.96 and 8.48.
The like results for `Cc1nc(-c2cccnc2)sc1C(=O)Nc1cn2nc(-c3c(-c4ccc(F)cc4)nn(C)c3C3CCOCC3)ccc2n1` [Compound 201, N-(6-(3-(4-Fluorophenyl)-1-methyl-5-(tetrahydro-2H-pyran-4-yl)-1H-pyrazol-4-yl)imidazo[1,2-b]pyridazin-2-yl)-4-methyl-2-(pyridin-3-yl)thiazole-5-carboxamide] were, in that order, 8.64 and 9.52.
Regarding `Cn1nc(-c2ccc(F)cc2)c(-c2ccc3nc(NC(=O)c4ccnc(F)c4)cn3n2)c1N1CCN(CCC#N)CC1` [Compound 125, N-(6-(5-(4-(2-Cyanoethyl)piperazin-1-yl)-3-(4-fluorophenyl)-1-methyl-1H-pyrazol-4-yl)imidazo[1,2-b]pyridazin-2-yl)-2-fluoroisonicotinamide], the pIC50 was 8.34 at CK1ε and 9.22 on CK1δ.
As for `Cn1cc(-c2ccc3nc(NC(=O)c4ccncc4)c(Br)n3n2)c(-c2ccc(F)cc2)n1` [Compound 193, N-(3-Bromo-6-(3-(4-fluorophenyl)-1-methyl-1H-pyrazol-4-yl)imidazo[1,2-b]pyridazin-2-yl)isonicotinamide], the pIC50 on CK1ε was 6.99; against CK1δ it was 7.77.
Turning to `Cn1nc(-c2ccc(F)cc2)c(-c2ccc3nc(NC(=O)c4ccnc(F)c4)cn3n2)c1N1CCN(C[C@@H](O)C(F)(F)F)CC1` [Compound 127, (R)-2-Fluoro-N-(6-(3-(4-fluorophenyl)-1-methyl-5-(4-(3,3,3-trifluoro-2-hydroxypropyl)piperazin-1-yl)-1H-pyrazol-4-yl)imidazo[1,2-b]pyridazin-2-yl)isonicotinamide], the pIC50 against CK1ε is 8.21; at CK1δ, 9.00.
With `Cn1cc(-c2ccc3nc(NC(=O)c4cccc(C(F)(F)F)n4)cn3n2)c(-c2ccc(F)cc2)n1` [Compound 65, N-(6-(3-(4-fluorophenyl)-1-methyl-1H-pyrazol-4-yl)imidazo[1,2-b]pyridazin-2-yl)-6-(trifluoromethyl) picolinamide], the pIC50 at CK1ε was 6.80; on CK1δ, 7.61.
For the compound `Cn1nc(-c2ccc(F)cc2)c(-c2ccc3nc(NC(=O)c4ccnc(F)c4)cn3n2)c1N1CCN(CCS(C)(=O)=O)CC1` [Compound 126, 2-Fluoro-N-(6-(3-(4-fluorophenyl)-1-methyl-5-(4-(2-(methylsulfonyl)ethyl)piperazin-1-yl)-1H-pyrazol-4-yl)imidazo[1,2-b]pyridazin-2-yl)isonicotinamide], the pIC50 is 6.91 at CK1ε and 8.54 against CK1δ.
With `Cn1cc(-c2ccc3nc(NC(=O)c4ccc(OCC(F)(F)F)nc4)cn3n2)c(-c2ccc(F)cc2)n1` [Compound 68, N-(6-(3-(4-fluorrophenyl)-1-methyl-1H-pyrazol-4-yl)imidazo[1,2-b]pyridazin-2-yl)-6-(2,2,2-trifluoroethoxy)nicotinamide], the pIC50 at CK1ε was 7.55; on CK1δ, 8.36.
The like results for `Cn1cc(-c2ccc3nc(NC(=O)C45CCCC(CCC4)C5)cn3n2)c(-c2ccc(F)cc2)n1` [Compound 92, N-(6-(3-(4-fluorophenyl)-1-methyl-1H-pyrazol-4-yl)imidazo[1,2-b]pyridazin-2-yl)bicyclo[3.3.1]nonane-1-carboxamide] were, in that order, 7.98 and 8.26.
Regarding `Cn1cc(-c2ccc3nc(NC(=O)c4csc(Br)n4)cn3n2)c(-c2ccc(F)cc2)n1` [Compound 13, 2-bromo-N-(6-(3-(4-fluorophenyl)-1-methyl-1H-pyrazol-4-yl)imidazo[1,2-b]pyridazin-2-yl)thiazole-4-carboxamide], the pIC50 against CK1ε is 7.64; against CK1δ it was 8.59.
For the compound `Cn1cc(-c2ccc3nc(NC(=O)C4CCCCCC4)cn3n2)c(-c2ccc(F)cc2)n1` [Compound 88], the results for the negative logarithm of the IC50 (pIC50) on CK1ε and against CK1δ were 7.98 and 8.38, respectively.
With `Cn1cc(-c2ccc3nc(NC(=O)c4cc(F)cc(C#N)c4)cn3n2)c(-c2ccc(F)cc2)n1` [Compound 57, 3-cyano-5-fluoro-N-(6-(3-(4-fluorophenyl)-1-methyl-1H-pyrazol-4-yl)imidazo[1,2-b]pyridazin-2-yl)benzamide], the results for the pIC50 at CK1ε and against CK1δ were 7.65 and 8.05, respectively.
For `O=C(Nc1cn2nc(-c3cn(C4CC4)nc3-c3ccc(F)cc3)ccc2n1)C1CC1` [Compound 101, N-(6-(1-Cyclopropyl-3-(4-fluorophenyl)-1H-pyrazol-4-yl)imidazo[1,2-b]pyridazin-2-yl)cyclopropanecarboxamide], the pIC50 is 6.77 against CK1ε and 7.55 against CK1δ.
Regarding `Cn1cc(-c2ccc3nc(NC(=O)c4cc(Cl)nc5ccccc45)cn3n2)c(-c2ccc(F)cc2)n1` [Compound 2, 2-chloro-N-(6-(3-(4-fluorophenyl)-1-methyl-1H-pyrazol-4-yl)imidazo[1,2-b]pyridazin-2-yl)quinoline-4-carboxamide], the figures for the pIC50 on CK1ε and against CK1δ were 7.72 and 8.89, respectively.
